Measurements: PubChem BioAssay AID256 (DTP/NCI, 2004)
Where “and” joins values, the source holds several entries; their conditions need not be identical. Equal entries are not always repeated. Toxic doses and inconclusive results are not listed.

Test system: CD2F1 mice, L1210 leukemia ip, survival T/C
Experiment: NCI In Vivo Anticancer Drug Screen. Data for tumor model L1210 Leukemia (intraperitoneal) in CD2F1 (CDF1) mice
Settings: higher = longer survival
Outline: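 Tumor-bearing mice (transplanted tumor) were split into treated and vehicle control groups, and the measured endpoint of each treated group was divided by that of its vehicle controls.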

[1] = endpoint: mean survival time, dose: 100.0 mg/kg/injection, schedule: Q01DX001 (ip), vehicle: saline with Tween-80
[2] = endpoint: mean survival time, dose: 100.0 mg/kg/injection, schedule: Q01DX009 (ip), vehicle: saline with Tween-80
[3] = endpoint: mean survival time, dose: 200.0 mg/kg/injection, schedule: Q01DX001 (ip), vehicle: saline with Tween-80
[4] = endpoint: mean survival time, dose: 200.0 mg/kg/injection, schedule: Q01DX009 (ip), vehicle: saline with Tween-80
[5] = endpoint: mean survival time, dose: 400.0 mg/kg/injection, schedule: Q01DX001 (ip), vehicle: saline with Tween-80
[6] = endpoint: mean survival time, dose: 400.0 mg/kg/injection, schedule: Q01DX009 (ip), vehicle: saline with Tween-80
[7] = endpoint: mean survival time, dose: 100.0 mg/kg/injection, schedule: Q04DX003 (ip), vehicle: saline
[8] = endpoint: mean survival time, dose: 100.0 mg/kg/injection, schedule: Q04DX003 (ip), vehicle: saline with Tween-80
[9] = endpoint: mean survival time, dose: 200.0 mg/kg/injection, schedule: Q04DX003 (ip), vehicle: saline with Tween-80
[10] = endpoint: mean survival time, dose: 400.0 mg/kg/injection, schedule: Q04DX003 (ip), vehicle: saline with Tween-80
[11] = endpoint: mean survival time, dose: 200.0 mg/kg/injection, schedule: Q04DX003 (ip), vehicle: saline
[12] = endpoint: mean survival time, dose: 400.0 mg/kg/injection, schedule: Q04DX003 (ip), vehicle: saline

COc1ccc(NC(=O)Nc2ccccc2C)c(Cl)c1
T/C (endpoint: mean survival time, dose: 25.0 mg/kg/injection, schedule: Q04DX002 (ip), vehicle: saline with Tween-80): 94 % of control
T/C (endpoint: mean survival time, dose: 50.0 mg/kg/injection, schedule: Q04DX002 (ip), vehicle: saline with Tween-80): 98 % of control
T/C (endpoint: mean survival time, dose: 100.0 mg/kg/injection, schedule: Q04DX002 (ip), vehicle: saline with Tween-80): 86 % of control and 90 % of control
T/C (endpoint: mean survival time, dose: 400.0 mg/kg/injection, schedule: Q04DX002 (ip), vehicle: saline with Tween-80): 86 % of control

O=C(c1ccccc1)C(c1ccccc1)C(SCc1ccccc1)c1ccccc1 (centres undefined)
T/C [1]: 88 % of control
T/C [2]: 94 % of control
T/C [3]: 90 % of control
T/C [4]: 100 % of control
T/C [5]: 98 % of control
T/C [6]: 103 % of control

C=CCOc1ccccc1C(C)=O
T/C [2]: 104 % of control
T/C [4]: 107 % of control
T/C [6]: 107 % of control

CCC(C)(CC)OC(=O)c1ccc([N+](=O)[O-])cc1
T/C (endpoint: mean survival time, dose: 100.0 mg/kg/injection, schedule: Q01DX001 (ip), vehicle: saline): 100 % of control
T/C (endpoint: mean survival time, dose: 200.0 mg/kg/injection, schedule: Q01DX001 (ip), vehicle: saline): 98 % of control
T/C (endpoint: mean survival time, dose: 400.0 mg/kg/injection, schedule: Q01DX001 (ip), vehicle: saline): 98 % of control

CNC(=O)c1ccc[n+](CC(=O)NCc2ccccc2)c1
T/C [7]: 107 % of control

CC(=O)c1cccc(OC(=O)c2ccccc2)c1
T/C [1]: 104 % of control
T/C [2]: 97 % of control
T/C [3]: 94 % of control
T/C [4]: 94 % of control
T/C [5]: 104 % of control
T/C [6]: 91 % of control

CC1(C)CCCC2(C)CC/C(=N\NC(N)=O)C=C12 (centres undefined)
T/C [2]: 93 % of control
T/C [8]: 95 % of control
T/C [4]: 89 % of control
T/C [9]: 96 % of control
T/C [6]: 88 % of control
T/C [10]: 96 % of control

COc1ccc(OC)c(/C=C/c2ccnc3ccccc23)c1
T/C (endpoint: median survival time, dose: 50.0 mg/kg/injection, schedule: Q01DX009 (ip), vehicle: saline with Tween-80): 102 % of control
T/C (endpoint: median survival time, dose: 100.0 mg/kg/injection, schedule: Q01DX009 (ip), vehicle: saline with Tween-80): 101 % of control
T/C (endpoint: median survival time, dose: 200.0 mg/kg/injection, schedule: Q01DX009 (ip), vehicle: saline with Tween-80): 108 % of control
T/C (endpoint: median survival time, dose: 400.0 mg/kg/injection, schedule: Q01DX009 (ip), vehicle: saline with Tween-80): 113 % of control

OC1CCCC(O)C1O (centres undefined)
T/C [7]: 101 % of control
T/C [11]: 97 % of control
T/C [12]: 101 % of control

CCOC(=O)c1c[nH]c2ccc3c(nc(C)n3C)c2c1=O
T/C (endpoint: median survival time, dose: 25.0 mg/kg/injection, schedule: Q01DX005 (ip), vehicle: Klucel (hydroxypropylcellulose) (HPC)): 98 % of control
T/C (endpoint: median survival time, dose: 50.0 mg/kg/injection, schedule: Q01DX005 (ip), vehicle: Klucel (hydroxypropylcellulose) (HPC)): 100 % of control
T/C (endpoint: median survival time, dose: 100.0 mg/kg/injection, schedule: Q01DX005 (ip), vehicle: Klucel (hydroxypropylcellulose) (HPC)): 108 % of control
T/C (endpoint: median survival time, dose: 200.0 mg/kg/injection, schedule: Q01DX005 (ip), vehicle: Klucel (hydroxypropylcellulose) (HPC)): 112 % of control

Cc1ccc(C(=O)[O][Hg][CH2]C2COC([CH2][Hg][O]C(=O)c3ccc(C)cc3)CO2)cc1 (centres undefined)
T/C (endpoint: mean survival time, dose: 3.12 mg/kg/injection, schedule: Q01DX009 (ip), vehicle: Klucel (hydroxypropylcellulose) (HPC)): 100 % of control and 106 % of control
T/C (endpoint: mean survival time, dose: 6.25 mg/kg/injection, schedule: Q01DX009 (ip), vehicle: Klucel (hydroxypropylcellulose) (HPC)): 101 % of control and 105 % of control
T/C (endpoint: mean survival time, dose: 12.5 mg/kg/injection, schedule: Q01DX009 (ip), vehicle: Klucel (hydroxypropylcellulose) (HPC)): 98 % of control and 108 % of control
T/C (endpoint: mean survival time, dose: 25.0 mg/kg/injection, schedule: Q01DX009 (ip), vehicle: Klucel (hydroxypropylcellulose) (HPC)): 98 % of control and 108 % of control
T/C (endpoint: mean survival time, dose: 50.0 mg/kg/injection, schedule: Q01DX009 (ip), vehicle: Klucel (hydroxypropylcellulose) (HPC)): 104 % of control

O=S(=O)(F)c1ccc2nc(-c3ccccc3)cc(Cl)c2c1
T/C (endpoint: mean survival time, dose: 100.0 mg/kg/injection, schedule: Q01DX009 (ip), vehicle: saline): 111 % of control
T/C (endpoint: mean survival time, dose: 200.0 mg/kg/injection, schedule: Q01DX009 (ip), vehicle: saline): 108 % of control
T/C (endpoint: mean survival time, dose: 400.0 mg/kg/injection, schedule: Q01DX009 (ip), vehicle: saline): 109 % of control

CC(Cc1ccccc1)NC1=NCCO1 (centres undefined)
T/C (endpoint: mean survival time, dose: 50.0 mg/kg/injection, schedule: Q01DX009 (ip), vehicle: saline with Tween-80): 96 % of control
T/C [2]: 104 % of control
T/C [8]: 104 % of control and 98 % of control and 89 % of control
T/C [4]: 93 % of control
T/C [9]: 91 % of control and 87 % of control
T/C [10]: 86 % of control

C/C=C1\CC2C=CC1C2 (centres undefined) (tested in a mixture with another compound)
T/C (endpoint: mean survival time, dose: 80.5 mg/kg/injection, schedule: Q01DX009 (ip), vehicle: saline with Tween-80): 98 % of control
T/C (endpoint: mean survival time, dose: 161.0 mg/kg/injection, schedule: Q01DX009 (ip), vehicle: saline with Tween-80): 87 % of control

CC(C)C1CCC(C)(Cl)C2CCC(C)(Cl)CC12 (centres undefined)
T/C [8]: 96 % of control
T/C [7]: 104 % of control
T/C [9]: 91 % of control
T/C [11]: 102 % of control
T/C [10]: 93 % of control
T/C [12]: 95 % of control

CN1C(C)(C)CC(CN2c3ccccc3Sc3ccccc32)C1(C)C (centres undefined)
T/C [8]: 97 % of control
T/C [9]: 104 % of control

O=C1OC(Cl)(c2cccc3ccccc23)c2ccccc21 (centres undefined)
T/C (endpoint: mean survival time, dose: 100.0 mg/kg/injection, schedule: Q04DX003 (ip), vehicle: Klucel (hydroxypropylcellulose) (HPC)): 87 % of control
T/C (endpoint: mean survival time, dose: 200.0 mg/kg/injection, schedule: Q04DX003 (ip), vehicle: Klucel (hydroxypropylcellulose) (HPC)): 87 % of control
T/C (endpoint: mean survival time, dose: 400.0 mg/kg/injection, schedule: Q04DX003 (ip), vehicle: Klucel (hydroxypropylcellulose) (HPC)): 94 % of control

CC(O)C1=CC(c2ccccc2)(c2ccccc2)c2ccccc21 (centres undefined)
T/C [1]: 95 % of control
T/C [3]: 91 % of control
T/C [5]: 88 % of control

N/N=C\C(=N/N)C(O)C(O)C(O)CO (centres undefined)
T/C [1]: 87 % of control

CC(C)=NNC(=O)CC(=O)NN=C(C)C
T/C (endpoint: mean survival time, dose: 100.0 mg/kg/injection, schedule: Q01DX009 (ip), vehicle: saline sonified): 100 % of control
T/C (endpoint: mean survival time, dose: 180.0 mg/kg/injection, schedule: Q01DX009 (ip), vehicle: saline with Tween-80): 100 % of control
T/C (endpoint: mean survival time, dose: 200.0 mg/kg/injection, schedule: Q01DX009 (ip), vehicle: saline sonified): 102 % of control
T/C (endpoint: mean survival time, dose: 266.0 mg/kg/injection, schedule: Q01DX009 (ip), vehicle: saline with Tween-80): 100 % of control
T/C [6]: 110 % of control
T/C (endpoint: mean survival time, dose: 600.0 mg/kg/injection, schedule: Q01DX009 (ip), vehicle: saline with Tween-80): 122 % of control

CCCCNCCCC
T/C [7]: 97 % of control

CC(=O)C(C)N(C)C (centres undefined)
T/C [7]: 105 % of control
T/C [11]: 100 % of control
T/C [12]: 96 % of control

C[n+]1ccc(Nc2ccc(NC(=O)c3ccc(Nc4cc[n+](C)c5ccc([N+](=O)[O-])cc45)cc3)cc2)cc1
T/C (endpoint: mean survival time, dose: 1.0 mg/kg/injection, schedule: Q01DX009 (ip), vehicle: water): 103 % of control
T/C (endpoint: mean survival time, dose: 2.0 mg/kg/injection, schedule: Q01DX009 (ip), vehicle: water): 110 % of control
T/C (endpoint: mean survival time, dose: 4.0 mg/kg/injection, schedule: Q01DX009 (ip), vehicle: water): 116 % of control
T/C (endpoint: mean survival time, dose: 16.0 mg/kg/injection, schedule: Q01DX009 (ip), vehicle: water): 174 % of control
T/C (endpoint: mean survival time, dose: 32.0 mg/kg/injection, schedule: Q01DX009 (ip), vehicle: water): 223 % of control
T/C (endpoint: mean survival time, dose: 50.0 mg/kg/injection, schedule: Q04DX003 (ip), vehicle: saline): 162 % of control
T/C [7]: 186 % of control
T/C [11]: 201 % of control

O=NN(CCF)C(=O)NC1C(O)CCCC1O (centres undefined)
T/C (endpoint: median survival time, dose: 1.25 mg/kg/injection, schedule: Q01DX001 (ip), vehicle: saline): 120 % of control
T/C (endpoint: median survival time, dose: 2.5 mg/kg/injection, schedule: Q01DX001 (ip), vehicle: saline): 116 % of control
T/C (endpoint: median survival time, dose: 5.0 mg/kg/injection, schedule: Q01DX001 (ip), vehicle: saline): 160 % of control
T/C (endpoint: median survival time, dose: 5.0 mg/kg/injection, schedule: Q04DX002 (ip), vehicle: saline): 178 % of control
T/C (endpoint: median survival time, dose: 10.0 mg/kg/injection, schedule: Q01DX001 (ip), vehicle: saline): 168 % of control
T/C (endpoint: median survival time, dose: 10.0 mg/kg/injection, schedule: Q04DX002 (ip), vehicle: saline): 231 % of control and 232 % of control
T/C (endpoint: median survival time, dose: 20.0 mg/kg/injection, schedule: Q01DX001 (ip), vehicle: saline): 337 % of control
T/C (endpoint: median survival time, dose: 20.0 mg/kg/injection, schedule: Q04DX002 (ip), vehicle: saline): 361 % of control and 365 % of control
T/C (endpoint: median survival time, dose: 40.0 mg/kg/injection, schedule: Q01DX001 (ip), vehicle: saline): 337 % of control
T/C (endpoint: median survival time, dose: 40.0 mg/kg/injection, schedule: Q04DX002 (ip), vehicle: saline): 182 % of control and 361 % of control
